# Molecular target: T1, human metabotropic glutamate receptor mGluR5 (Homo sapiens, UniProt P41594)
# T1 construct: expressed in transfected cells; host or cells: CHO-K1
# Assay: Cytosolic calcium studies with stably transfected cells (CHO-K1)
# Format: cell-based
# Method: Functional Assay of mGluR5 Receptors Cytosolic Calcium Studies with Stably Transfected Cells
# Chinese hamster ovary cells (CHO-K1 cells), stably transfected for inducible expression of a human metabotropic glutamate receptor mGluR5, are seeded into black clear bottom 96 well plates at a density of 35.000 cells per well. The standard growth medium used (Dulbecco's modified Eagle Medium, DMEM plus L-proline) contains the appropriate inducer isopropyl-β-D-thiogalactopyranosid (IPTG) to achieve optimal receptor expression. One day after seeding the growth medium is exchanged for reconstituted Ca-Kit (Molecular Devices, USA) and incubated for one hour. Ca-Kit is reconstituted in an assay buffer containing 20 mM HEPES pH 7.4, glutamic-pyruvate transaminase, pyridoxal phosphate and sodium pyruvate in Hank's balanced salt solution (HBBS). Agonistic compounds to the receptor elicit increases in cytosolic calcium which can be measured as increases in fluorescence signals by use of a fluorescence imaging plate reader (Molecular Devices). […] Similarly, for the characterization of positive allosteric modulators, a dilution series of the test compound is added online to 384 well plates containing the described dye loaded cells and after a preincubation time of 5 minutes stimulated by a basal cell concentration of the agonist L-glutamate giving about 20% of the maximal signal.
# (§1) The fluorescence signal increase after addition of agonist reflects the increase of cytosolic calcium. Inconsistencies in the amount of cells per well are normalised by using the spatial uniformity correction of the FLIPR operating software Screenworks. The mean of replicated temporal data (n=3-5) is calculated and used for graphical representation. For the evaluation of the pharmacology, the calcium changes in response to different concentrations of agonist or antagonist are determined using a maximum minus minimum (MaxMin) calculation.
# (§2) All responses (RFU-values) are determined as percentage of control (=maximum response). EC50 and IC50 are calculated according the logistic equation using Prism 4.0 (GraphPad Software, USA).
# T1 sequence (P41594 21-1212): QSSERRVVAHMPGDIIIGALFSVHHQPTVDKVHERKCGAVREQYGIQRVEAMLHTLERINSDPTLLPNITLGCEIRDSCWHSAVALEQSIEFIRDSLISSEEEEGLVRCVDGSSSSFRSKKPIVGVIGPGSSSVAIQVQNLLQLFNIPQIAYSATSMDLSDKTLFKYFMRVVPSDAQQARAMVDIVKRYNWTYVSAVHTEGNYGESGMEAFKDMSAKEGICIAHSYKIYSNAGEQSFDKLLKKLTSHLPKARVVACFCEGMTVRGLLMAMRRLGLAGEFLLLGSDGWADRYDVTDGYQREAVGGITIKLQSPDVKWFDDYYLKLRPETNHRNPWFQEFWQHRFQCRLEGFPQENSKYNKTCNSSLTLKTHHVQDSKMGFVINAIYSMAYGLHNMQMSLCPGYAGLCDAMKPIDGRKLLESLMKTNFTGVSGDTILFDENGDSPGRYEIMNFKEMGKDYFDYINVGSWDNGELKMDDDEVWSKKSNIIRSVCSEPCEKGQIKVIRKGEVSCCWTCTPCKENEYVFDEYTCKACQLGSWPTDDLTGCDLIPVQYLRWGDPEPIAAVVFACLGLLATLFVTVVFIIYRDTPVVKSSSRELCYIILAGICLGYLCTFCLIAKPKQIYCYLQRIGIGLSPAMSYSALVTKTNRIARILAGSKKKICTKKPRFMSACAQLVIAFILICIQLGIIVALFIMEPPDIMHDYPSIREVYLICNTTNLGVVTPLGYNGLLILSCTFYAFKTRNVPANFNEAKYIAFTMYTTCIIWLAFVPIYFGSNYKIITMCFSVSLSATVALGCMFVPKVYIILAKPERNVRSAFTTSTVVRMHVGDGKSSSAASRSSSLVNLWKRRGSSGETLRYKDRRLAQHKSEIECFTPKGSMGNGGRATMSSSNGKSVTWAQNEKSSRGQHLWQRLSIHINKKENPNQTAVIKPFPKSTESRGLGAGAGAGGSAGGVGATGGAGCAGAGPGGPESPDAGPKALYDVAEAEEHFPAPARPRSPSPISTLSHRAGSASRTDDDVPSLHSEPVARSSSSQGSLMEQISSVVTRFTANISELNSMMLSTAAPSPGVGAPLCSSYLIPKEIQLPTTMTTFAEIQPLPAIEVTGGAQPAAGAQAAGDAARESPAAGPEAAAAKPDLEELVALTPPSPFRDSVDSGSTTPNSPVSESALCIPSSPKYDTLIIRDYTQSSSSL
row,SMILES,EC50 [nM]
1,"Fc1cccc(C#Cc2cnc3ncsc3c2)c1 [Example 44, 6-(3-Fluoro-phenylethynyl)-thiazolo[4,5-b]pyridine]",23
2,"Fc1ccccc1C#Cc1cnc2ncsc2c1 [Example 45, 6-(2-Fluoro-phenylethynyl)-thiazolo[4,5-b]pyridine]",65
3,"Fc1ccc(-c2cc3ncc(C#Cc4ccccc4)cn3n2)cc1 [Example 28, 2-(4-Fluoro-phenyl)-6-phenylethynyl-pyrazolo[1,5-a]pyrimidine]",93
4,"Fc1cccc(C#Cc2cnc3cccnc3c2)c1 [Example 67, 3-(3-Fluoro-phenylethynyl)-[1,5]naphthyridine]",6.8
5,"Fc1cc(F)cc(C#Cc2cnc3nccnc3c2)c1 [Example 108, 7-((3,5-Difluorophenyl)ethynyl)pyrido[2,3-b]pyrazine]",4100
6,"Fc1cccc(F)c1C#Cc1cnc2nccnc2c1 [Example 107, 7-((2,6-Difluorophenyl)ethynyl)pyrido[2,3-b]pyrazine]",3700
7,"C(#Cc1cnc2cccnc2c1)c1cccnc1 [Example 101, 3-(Pyridin-3-ylethynyl)-1,5-naphthyridine]",470
8,"Fc1ccc(C#Cc2cnc3ncoc3c2)cc1 [Example 70, 6-(4-Fluoro-phenylethynyl)-oxazolo[4,5-b]pyridine]",1400
9,"Cn1cnc2cc(C#Cc3cccc(F)c3)cnc21 [Example 105, 6-(3-Fluoro-phenylethynyl)-3-methyl-3H-imidazo[4,5-b]pyridine]",21
10,"C(#Cc1ccc2nc(-c3ccco3)nn2c1)c1ccccc1 [Example 84, 2-Furan-2-yl-6-phenylethynyl-[1,2,4]triazolo[1,5-a]pyridine]",410
11,"COc1cnc2ncc(C#Cc3ccccc3)cc2n1 [Example 92, 2-Methoxy-7-(phenylethynyl)pyrido[2,3-b]pyrazine]",280
12,"C(#Cc1ccc2ccnn2c1)c1ccccc1 [Example 29, 6-Phenylethynyl-pyrazolo[1,5-a]pyridine]",78
13,"Clc1cccc(C#Cc2cnc3nccnc3c2)c1 [Example 111, 7-((3-Chlorophenyl)ethynyl)pyrido[2,3-b]pyrazine]",120
14,"Cc1ccc(C#Cc2cnc3cccnc3c2)c(F)c1 [Example 115, 3-((2-Fluoro-4-methylphenyl)ethynyl)-[1,5]naphthyridine]",690
15,"C(#Cc1cnc2ncoc2c1)c1ccccc1 [Example 42, 6-Phenylethynyl-oxazolo[4,5-b]pyridine]",470
16,"Cc1ccccc1C#Cc1cnc2nccnc2c1 [Example 87, 7-(o-Tolylethynyl)-pyrido[2,3-b]pyrazine]",1100
17,"Cn1cnc2cc(C#Cc3ccc(F)cc3)cnc21 [Example 106, 6-(4-Fluoro-phenylethynyl)-3-methyl-3H-imidazo[4,5-b]pyridine]",57
18,"Fc1cccc(F)c1C#Cc1cnc2ncsc2c1 [Example 78, 6-((2,6-Difluorophenyl)ethynyl)thiazolo[4,5-b]pyridine]",1700
19,"Fc1ccc(C#Cc2cnc3nccnc3c2)c(F)c1 [Example 109, 7-((2,4-Difluorophenyl)ethynyl)pyrido[2,3-b]pyrazine]",3500

# The remaining lines, values ahead:
row,EC50 [nM],SMILES
1,1300,"CC(C)(C)OC(=O)N1CC=C(C#Cc2cnc3ccnn3c2)CC1 [Example 12, 4-Pyrazolo[1,5-a]pyrimidin-6-ylethynyl-3,6-dihydro-2H-pyridine-1-carboxylic acid tert-butyl ester]"
2,340,"O=C(c1cc2ncc(C#Cc3ccccc3)cn2n1)N1CCC(c2ccccc2)CC1 [Example 18, (6-Phenylethynyl-pyrazolo[1,5-a]pyrimidin-2-yl)-(4-phenyl-piperidin-1-yl)-methanone]"
3,250,"O=C(c1cc2ccc(C#Cc3ccccc3)cn2n1)N1CCCCC1 [Example 32, (6-Phenylethynyl-pyrazolo[1,5-a]pyridin-2-yl)-piperidin-1-yl-methanone]"
4,260,"O=C(c1cc2ncc(C#Cc3ccccc3)cn2n1)N1CCCCCC1 [Example 17, Azepan-1-yl-(6-phenylethynyl-pyrazolo[1,5-a]pyrimidin-2-yl)-methanone]"
5,1800,"Fc1ccc(C#Cc2cnc3ncnn3c2)cc1 [Example 49, 6-(4-Fluoro-phenylethynyl)-[1,2,4]triazolo[1,5-a]pyrimidine]"
6,610,"O=C(c1cc2ncc(C#Cc3ccccc3)cn2n1)N1CCCC1 [Example 19, (6-Phenylethynyl-pyrazolo[1,5-a]pyrimidin-2-yl)-pyrrolidin-1-yl-methanone]"
7,6900,"O=C(c1nc2ccc(C#Cc3ccc(F)cc3)cn2n1)N1CCCCC1 [Example 59, [6-(4-Fluoro-phenylethynyl)-[1,2,4]triazolo[1,5-a]pyridin-2-yl]-piperidin-1-yl-methanone]"
8,940,"O=C(c1nc2ncc(C#Cc3ccccc3)cn2n1)N1CCCCC1 [Example 36, (6-Phenylethynyl-[1,2,4]triazolo[1,5-a]pyrimidin-2-yl)-piperidin-1-yl-methanone]"
9,77,"Cc1ccc(C#Cc2cnc3ccnn3c2)cc1 [Example 9, 6-p-Tolylethynyl-pyrazolo[1,5-a]pyrimidine]"
10,1000,"Fc1ccccc1C#Cc1cnc2ncnn2c1 [Example 48, 6-(2-Fluoro-phenylethynyl)-[1,2,4]triazolo[1,5-a]pyrimidine]"
11,520,"Clc1cc(Cl)cc(C#Cc2cnc3ccnn3c2)c1 [Example 2, 6-(3,5-Dichloro-phenylethynyl)-pyrazolo[1,5-a]pyrimidine]"
12,120,"C(#Cc1cnc2ccnn2c1)Cc1ccccc1 [Example 14, 6-(3-Phenyl-prop-1-ynyl)-pyrazolo[1,5-a]pyrimidine]"
13,29,"C(#Cc1ccc2ccnn2c1)C1=CCCCC1 [Example 30, 6-Cyclohex-1-enylethynyl-pyrazolo[1,5-a]pyridine]"
14,200,"Fc1cc(F)cc(C#Cc2cnc3ccnn3c2)c1 [Example 11, 6-(3,5-Difluoro-phenylethynyl)-pyrazolo[1,5-a]pyrimidine]"
15,1200,"O=C(c1nc2ccc(C#Cc3cccc(F)c3)cn2n1)N1CCCCC1 [Example 57, [6-(3-Fluoro-phenylethynyl)-[1,2,4]triazolo[1,5-a]pyridin-2-yl]-piperidin-1-yl-methanone]"
16,430,"Fc1cccc(C#Cc2ccc3ncnn3c2)c1 [Example 53, 6-(3-Fluoro-phenylethynyl)-[1,2,4]triazolo[1,5-a]pyridine]"
17,6.3,"C(#Cc1cnc2ncoc2c1)C1=CCCCC1 [Example 71, 6-Cyclohex-1-enylethynyl-oxazolo[4,5-b]pyridine]"

# Molecular target: T2, mGluR5 receptors (Rattus norvegicus, UniProt P31424)
# T2 construct: Primary astrocyte cultures are prepared from cortices of newborn rats; endogenous in cells; host or cells: primary rat cortical astrocytes (Sprague-Dawley pups)
# Assay: Cytosolic calcium studies with cultured rat astrocytes
# Format: cell-based
# Method: Primary astrocyte cultures are prepared from cortices of newborn rats as described by Booher and Sensenbrenner (1972, Neurobiology 2(3):97-105). Briefly, Sprague-Dawley rat pups (2-4 d old) are decapitated and neocortices are dissected, disintegrated with a nylon filter (pore size 80 μm) and carefully triturated. The cell suspension is plated on poly-D-lysine pre-coated flasks (Costar, Netherlands) and cultivated in Dulbecco's Modified Eagle's Medium (DMEM, Invitrogen, Germany) supplemented with 10% foetal calf serum (FCS, Sigma, Germany), 4 mM glutamine and […] gentamycin (both Biochrom, Germany) at 37° C. in a humidified atmosphere of 5% CO2/95% air for 7 days with exchanging the medium at day 2 and 6.
# After 7 days in vitro (DIV), cells are shaken overnight at 250 rpm to remove oligodendrocytes and microglia. The next day, astrocytes are rinsed twice with CMF-PBS (calcium- and magnesium-free phosphate buffered saline, Biochrom, Germany), trypsinized and subplated on poly-D-lysine pre-coated 96-well plates (Greiner, Germany) at a density of 40,000 cells/well. 24 h after establishing the secondary culture the astrocytes are rinsed with PBS″ (phosphate buffered saline, Biochrom, Germany) and fed with astrocyte-defined medium (ADM) consisting of DMEM containing 1× G5-supplement (Invitrogen, Germany), 0.5 μg/ml heparan sulfate, and 1.5 μg/ml fibronectin (both Sigma, Germany) (Miller et al., (1993) Brain Res. 618(1):175-8). 3 days later the medium is exchanged and the cells incubated for another 2-3 days, so that at the time of experiments astrocytes are 14-15 DIV.
# The increase of cytosolic calcium after stimulation with the mGluR5 agonist L-quisqualate is measured using a fluorometric imaging plate reader (FLIPR) and the Ca-Kit (both Molecular Devices). Prior to addition of agonist or antagonist the medium is aspirated and cells are loaded for 2 h at RT with 150 μl of loading buffer consisting of Ca-sensitive dye reconstituted in sodium chloride (123 mM), potassium chloride (5.4 mM), magnesium chloride (0.8 mM), calcium chloride (1.8 mM), D-glucose (15 mM), and HEPES (20 mM), pH 7.3. Subsequently, plates are transferred to FLIPR to detect calcium increase with the addition of L-quisqualate (100 nM) measured as relative fluorescence units (RFU). If antagonists are tested, these compounds are pre-incubated for 10 minutes at RT before addition of the respective agonist.
# Thereafter, concentration-response curves for the positive modulator are performed in the presence of a fixed concentration of quisqualate showing the biggest window for potentiation (normally 10-30 nM).
# as §1, §2
# T2 sequence (P31424 21-1203): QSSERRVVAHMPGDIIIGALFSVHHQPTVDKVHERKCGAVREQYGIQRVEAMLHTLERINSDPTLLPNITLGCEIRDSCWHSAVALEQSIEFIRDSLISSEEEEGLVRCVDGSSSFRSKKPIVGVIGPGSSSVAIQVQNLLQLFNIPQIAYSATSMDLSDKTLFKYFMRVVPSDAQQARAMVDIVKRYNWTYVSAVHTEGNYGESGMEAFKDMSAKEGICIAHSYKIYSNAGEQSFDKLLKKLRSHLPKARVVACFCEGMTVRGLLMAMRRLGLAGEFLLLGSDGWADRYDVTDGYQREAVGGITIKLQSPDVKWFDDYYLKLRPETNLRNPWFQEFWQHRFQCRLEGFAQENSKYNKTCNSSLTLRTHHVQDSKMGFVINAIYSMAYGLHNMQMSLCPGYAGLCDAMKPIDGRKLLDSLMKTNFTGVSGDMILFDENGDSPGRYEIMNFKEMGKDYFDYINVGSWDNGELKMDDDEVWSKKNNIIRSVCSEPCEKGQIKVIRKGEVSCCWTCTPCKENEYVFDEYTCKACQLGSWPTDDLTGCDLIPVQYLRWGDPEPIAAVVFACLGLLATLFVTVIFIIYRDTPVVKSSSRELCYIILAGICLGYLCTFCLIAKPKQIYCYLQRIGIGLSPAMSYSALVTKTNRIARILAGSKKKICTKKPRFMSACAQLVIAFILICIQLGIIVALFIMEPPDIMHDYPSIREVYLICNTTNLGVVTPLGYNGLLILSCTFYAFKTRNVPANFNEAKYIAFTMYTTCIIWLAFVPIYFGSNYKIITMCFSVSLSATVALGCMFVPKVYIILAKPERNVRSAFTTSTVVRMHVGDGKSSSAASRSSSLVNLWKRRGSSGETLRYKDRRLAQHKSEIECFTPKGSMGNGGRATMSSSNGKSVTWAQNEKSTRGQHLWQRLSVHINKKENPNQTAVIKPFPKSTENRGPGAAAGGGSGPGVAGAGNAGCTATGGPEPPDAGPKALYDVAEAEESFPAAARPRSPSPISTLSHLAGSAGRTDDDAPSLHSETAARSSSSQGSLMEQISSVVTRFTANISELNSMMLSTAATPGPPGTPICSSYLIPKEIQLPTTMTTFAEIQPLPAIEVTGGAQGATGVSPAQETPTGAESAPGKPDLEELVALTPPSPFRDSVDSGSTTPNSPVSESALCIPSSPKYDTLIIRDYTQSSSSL
row,SMILES,EC50 [nM]
1,"Fc1cccc(C#Cc2cnc3ncsc3c2)c1 [Example 44, 6-(3-Fluoro-phenylethynyl)-thiazolo[4,5-b]pyridine]",37
2,"Fc1ccccc1C#Cc1cnc2ncsc2c1 [Example 45, 6-(2-Fluoro-phenylethynyl)-thiazolo[4,5-b]pyridine]",56
3,"Fc1cccc(C#Cc2cnc3cccnc3c2)c1 [Example 67, 3-(3-Fluoro-phenylethynyl)-[1,5]naphthyridine]",8.6
4,"Oc1ccc(C#Cc2cnc3nccnc3c2)cc1 [Example 90, 4-(Pyrido[2,3-b]pyrazin-7-ylethynyl)phenol]",1000
5,"C(#Cc1cnc2cccnc2c1)c1ccccc1 [Example 41, 3-Phenylethynyl-[1,5]naphthyridine]",5

# Results, then the molecule that gave them:
row,EC50 [nM],SMILES
1,480,"O=C(c1cc2ccc(C#Cc3ccccc3)cn2n1)N1CCCCC1 [Example 32, (6-Phenylethynyl-pyrazolo[1,5-a]pyridin-2-yl)-piperidin-1-yl-methanone]"
2,1100,"O=C(c1nc2ccc(C#Cc3ccccc3F)cn2n1)N1CCCCC1 [Example 58, [6-(2-Fluoro-phenylethynyl)-[1,2,4]triazolo[1,5-a]pyridin-2-yl]-piperidin-1-yl-methanone]"
